pIC50: −log10 of the molar value.
How the values were obtained:
AT1 (h) = AT1 (h) (Homo sapiens, UniProt P30556); experiment: Cerep Express Panel, antagonist radioligand; format: binding; conditions: read-out: % Inhibition of reference (10 µM)
[1] = tested on: MM1S multiple myeloma cells; experiment: Fluorescent cell-viability assay (PrestoBlue); format: cell-based, human
Protocol: MM1S myeloma cells were cultured in RMPI with 10% heat-inactivated FCS and 2 mM glutamine under standard conditions. […] Viability was measured using PrestoBlue reagent and normalized to a vehicle control. Data were plotted and IC50 values were calculated in Prism (v5.1).

CCR1 (h) = target: T1, CCR1 (h) (Homo sapiens, UniProt P32246); experiment: Cerep Express Panel, agonist radioligand; format: binding; conditions: read-out: % Inhibition of reference (10 µM)
T1 sequence (P32246 1-355): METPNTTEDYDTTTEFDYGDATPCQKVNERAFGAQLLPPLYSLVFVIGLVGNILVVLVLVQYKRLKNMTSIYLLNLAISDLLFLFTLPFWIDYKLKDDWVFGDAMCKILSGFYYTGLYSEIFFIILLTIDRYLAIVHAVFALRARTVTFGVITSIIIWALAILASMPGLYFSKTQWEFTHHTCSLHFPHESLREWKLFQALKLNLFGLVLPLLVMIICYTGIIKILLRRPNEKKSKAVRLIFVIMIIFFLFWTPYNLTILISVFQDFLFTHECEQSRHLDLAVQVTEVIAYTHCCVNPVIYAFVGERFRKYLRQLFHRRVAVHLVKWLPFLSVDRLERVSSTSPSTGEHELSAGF

KV channel = experiment: Cerep Express Panel, antagonist radioligand; format: binding
[2] = Liver microsomes stability; format: in vitro ADME; conditions: mouse liver microsomes
CCK1 (CCKA) (h) = CCK1 (CCKA) (h) (Homo sapiens, UniProt P32238); experiment: Cerep Express Panel, agonist radioligand; format: binding; conditions: read-out: % Inhibition of reference (10 µM)
Sequence of CCK1 (CCKA) (h) (P32238 whole entry): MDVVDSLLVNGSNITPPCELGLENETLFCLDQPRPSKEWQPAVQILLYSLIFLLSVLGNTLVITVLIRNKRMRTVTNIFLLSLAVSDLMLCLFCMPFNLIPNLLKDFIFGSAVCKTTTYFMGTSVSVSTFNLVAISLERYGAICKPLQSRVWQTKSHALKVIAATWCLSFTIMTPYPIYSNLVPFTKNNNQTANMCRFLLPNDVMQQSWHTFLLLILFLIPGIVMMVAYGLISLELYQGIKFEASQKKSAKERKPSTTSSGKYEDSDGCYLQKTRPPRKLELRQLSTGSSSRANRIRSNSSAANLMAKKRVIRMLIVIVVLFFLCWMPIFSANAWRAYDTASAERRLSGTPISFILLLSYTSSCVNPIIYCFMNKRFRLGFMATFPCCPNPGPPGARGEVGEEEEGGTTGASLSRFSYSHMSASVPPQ

NK2 (h) = NK2 (h) (Homo sapiens, UniProt P21452); experiment: Cerep Express Panel, agonist radioligand; format: binding; conditions: read-out: % Inhibition of reference (10 µM)
Sequence of NK2 (h) (P21452 whole entry): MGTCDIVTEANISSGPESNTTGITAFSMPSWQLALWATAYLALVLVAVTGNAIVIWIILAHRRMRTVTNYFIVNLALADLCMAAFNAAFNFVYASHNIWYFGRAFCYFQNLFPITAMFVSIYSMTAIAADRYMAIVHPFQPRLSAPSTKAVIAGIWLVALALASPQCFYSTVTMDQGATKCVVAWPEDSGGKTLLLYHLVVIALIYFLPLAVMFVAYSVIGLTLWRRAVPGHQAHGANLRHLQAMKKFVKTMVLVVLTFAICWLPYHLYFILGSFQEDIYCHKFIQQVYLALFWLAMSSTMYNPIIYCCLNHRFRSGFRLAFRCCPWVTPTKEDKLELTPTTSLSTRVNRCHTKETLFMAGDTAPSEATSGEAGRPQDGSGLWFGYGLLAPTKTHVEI

Sequence of AT1 (h) (P30556 whole entry): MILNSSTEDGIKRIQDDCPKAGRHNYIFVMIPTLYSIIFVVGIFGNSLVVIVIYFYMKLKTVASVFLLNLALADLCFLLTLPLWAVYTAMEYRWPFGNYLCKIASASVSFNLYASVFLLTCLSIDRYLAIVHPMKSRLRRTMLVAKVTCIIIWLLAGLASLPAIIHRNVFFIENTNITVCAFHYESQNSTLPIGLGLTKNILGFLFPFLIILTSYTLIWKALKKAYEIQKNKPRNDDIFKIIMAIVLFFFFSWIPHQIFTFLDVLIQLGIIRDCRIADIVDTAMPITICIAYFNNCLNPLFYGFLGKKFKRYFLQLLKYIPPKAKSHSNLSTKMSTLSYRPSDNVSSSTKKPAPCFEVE

CCN(CCN(C)C)C(=O)CNCc1cc(C(N)=O)ccn1 [KDOAM-25]
inhibition at 10 µM (AT1 (h)): -7%
pIC50 ([1]; Homo sapiens, MM1.S, after a delay of 5–7 days): ~4.52
effect on cell viability, in words ([1]; MM1S, after 3 days): little effect on cell viability
inhibition at 10 µM (CCR1 (h)): -8%
% Inhibition of reference (10 µM) (KV channel): -4%
intrinsic clearance, in words [2]: low intrinsic clearance
microsomal CLint ([2]; read-out: MLM Clint): 8.42 µL/min/mg
inhibition at 10 µM (CCK1 (CCKA) (h)): -3%
inhibition at 10 µM (NK2 (h)): 3%

Reference: PMC5361737, “Potent and Selective KDM5 Inhibitor Stops Cellular Demethylation of H3K4me3 at Transcription Start Sites and Proliferation of MM1S Myeloma Cells” (Cell Chemical Biology, 2017)
